# Laboratory results reported in US9873880B2, “Engineering microorganisms” (DSM NUTRITIONAL PRODUCTS AG, priority 2013, dated 2018).
# Assays:
# [1] = test system: transformed strains bearing the zeocin-resistance gene (from S. hidustanus) expression cassette; test: Zeocin sensitivity of transformed strains, spotted colonies; type: cell-based, Thraustochytrium sp. ONC-T18; details: 18 g/L sea salt
# Experimental: (§1) A very small amount of inoculum of zeocin-resistant strains that had been transferred three times via colony passages on zeocin/ONC-T18-GM0 agar plates (as well as their parental strain or the wild type strain) was picked from colonies using a 10 μL pipette tip and re-suspended in 50 μL sterilized water in a 200 μL PCR tube. One μL of the cell suspension was spotted on ONC-T18-GM0 agar plates containing 18 g/L sea salt (15 g/L agar) and zeocin at a concentration ranging from 0 to 5000 μg/mL (Invitrogen, CA, USA). The diameters of the spotted colonies were measured on day 1, day 3, day 5, day 7, and day 8.
# [2] = test system: wild type strain of ONC-T18; test: Zeocin as mutagenic agent on ONC-T18 agar plates; type: cell-based, Thraustochytrium sp. ONC-T18
# Experimental: The marine protist wild type strain of ONC-T18 was chosen as a model system to test if zeocin would be effective to induce mutagenesis in this strain. One full loop of the inocula of ONC-T18, growing in the agar plates containing ONC-T18-GM0 medium [5 g/L yeast extract, 5 g/L peptone, 10 g/L D(+)-glucose. 35 g/L artificial sea salt, 1.25 mg/L trace elements (5 g/L NaH2PO4.H2O, 3.15 g/L FeCl3.6H2O, 4.36 g/L Na2EDTA.2H2O, 0.6125 mg/L CuSO4.5H2O, 0.0597 g/L Na2MoO4.2H2O, 0.022 g/L ZnSO4.7H2O, 0.01 g/L CoCl2.6H2O, 0.18 g/L MnCl2.4H2O, 13 μg/L […], 2.7 mg/L NiSO4.6H2O, 1.84 mg/L Na3VO4 and 1.94 mg/L […]). 1.25 mg/L vitamins (1 mg/L vitamin B12, 1 mg/L biotin, 0.20 g/L thiamine HCl) and 20 g agar per liter], was inoculated into 50 mL liquid ONC-T18-GM0 medium, and incubated in a shaker incubator at 25° C. at 250 rpm for 36 hours. Half a milliliter of culture was transferred into a 1.5 mL tube and vortexed at full speed for 30 seconds, and then diluted in 50 mL sterilized water. One hundred microliters of the diluted inocula were respectively spread on the agar plates containing zeocin at various concentrations (0, 10, 30, 50, and 100 μg/mL). Plates were incubated at 25° C. incubator. The emergence and development of the colonies were observed daily. […] Under these conditions, zeocin was effective within the range of at least 10-200 μg/mL; higher concentrations may well also be effective. For example, concentrations in the range of 200-500 μg/mL or higher could work. […] Under the particular conditions utilized in the present Example, zeocin worked best at 50 μg/mL.
# [3] = test system: Thraustochytrium sp. ONC-T18; test: Effects of zeocin and salinity on colony numbers and colony diameters of ONC-T18; type: cell-based; details: for colony numbers: 10 days; for colony numbers / colony growth rates (diameter in mm): mean of two plates
# Experimental: One hundred μL of ONC-T18 cell suspension diluted at 1:500 from a 2-day culture were spread onto ONC-T18-GM0 plates containing various concentrations of antibiotic zeocin and sea salt. Inoculated plates were incubated in a 25° C. incubator for 10 days. The numbers of the colonies on each plate were counted. […] In plates containing 8.5 g/L sea salt without zeocin, only one colony was observed. In plates containing 18 g/L sea salt without zeocin, colony numbers were similar to that of plates containing 35 g/L sea salt without zeocin. […] Therefore, for this work, 18 g/L sea salt was used to make ONC-T18-GM0 for selection of ONC-T18 transformants transformed with constructs bearing a zeocin-resistant gene expression cassette.
# [4] = test system: parental strain (the wild type strain) ONC-T18; test: Zeocin sensitivity of the parental (wild type) strain, spotted colonies; type: cell-based, Thraustochytrium sp. ONC-T18; details: ONC-T18-GM0 agar plates, 18 g/L sea salt, spotted cells
# Experimental: as §1
# [5] = test system: Thraustochytrium sp. ONC-T18; test: Effects of antibiotics on the growth of ONC-T18 on ONC-T18-GM0 agar plates; type: cell-based
# Experimental: Thraustochytrium sp. ONC-T18 was grown on agar plates (20 g agar per liter ONC-T18-GM0). One loop of inoculum of ONC-T18 was inoculated into 50 mL of liquid ONC-T18-GM0, and the culture was incubated in a shaker incubator at 25° C. at 250 rpm for 36 hours. Half a milliliter of the culture was transferred into a 1.5 mL tube and vortexed at full speed for 30 seconds to break down cell clusters, then diluted in 50 mL sterilized water. One hundred microliters of the resulting solution was spread onto each ONC-T18-GM0 medium plate. Each plate contained one of various antibiotics at one of various concentrations. Plates were incubated at 25° C. and emergence and development of colonies were observed daily.
# [6] = test system: wild type strains ONC-T18; test: Transgene stability assay, growth on zeocin plates after six colony passages; type: cell-based, Thraustochytrium sp. ONC-T18; details: zeocin 200 μg/mL media
# Source text: Transgene stability is important for certain applications of genetic engineering in industrial microbial strain improvement programs where microorganisms are used in pharmaceutical or industrial processes, and where product quantity and quality are paramount. We therefore carried out transgene stability estimate assays of transformed ONC-T18 strains. As for the growth rate assays described in above, inocula of four strains of each transformation as well as their ancestor wild type strains were spotted on ONC-T18-GM0 agar plates in the absence of zeocin and incubated at 25° C. for seven days. (Each transformation had been performed using one of the five different plasmid constructs, each of which bears various zeocin-resistant gene expression cassettes driven by a combination of different promoters and terminators). Then, using the same method, strains were transferred on a new fresh ONC-T18-GM0 agar plate and incubated at 25° C. for 7 days; colony passages were carried out 6 times. Finally, strains were transferred back onto ONC-T18-GM0 agar plates either without or with zeocin at a concentration of 200 μg/mL media.
# [7] = cited from earlier work
# [8] = agar plates, ONC-T18-GM0, 35 g/L artificial sea salt
compound,measurement,setting,value
"Cc1c(N)nc([C@H](CC(N)=O)NC[C@H](N)C(N)=O)nc1C(=O)N[C@H](C(=O)N[C@H](C)[C@@H](O)[C@H](C)C(=O)N[C@H](C(=O)NCCC1=N[C@@H](c2nc(C(=O)NCCCCN=C(N)N)cs2)CS1)[C@@H](C)O)[C@@H](O[C@@H]1O[C@@H](CO)[C@@H](O)[C@H](O)[C@@H]1O[C@H]1O[C@H](CO)[C@@H](O)[C@H](OC(N)=O)[C@@H]1O)c1cnc[nH]1 [Zeocin, zeocin]",growth of transformed strains,[1]; zeocin 5000 μg/mL,most strains grew remarkably slower
same,growth of transformed strains,[1]; zeocin 30 to 1000 μg/mL,grew well
same,concentration at which zeocin worked best as mutagen,[2]; [8],50 µg/mL
same,concentration range in which zeocin was effective as mutagen,[2]; [8],10 to 200 µg/mL
same,colonies seen per plate,"[2]; zeocin 50 μg/mL, six days post inoculation",Only a few of colonies
same,sensitivity of ONC-T18 cells to zeocin,[2]; zeocin 100 μg/mL,highly sensitive
same,zeocin concentration that completely inhibited growth of ONC-T18,[3]; ONC-T18-GM0 agar plates containing 18 g/L sea salt,30 µg/mL
same,zeocin concentration needed for complete inhibition of ONC-T18,[3]; ONC-T18-GM0 agar plates containing 35 g/L sea salt,100 µg/mL
same,colony numbers,"[3]; salt 5 g/L, zeocin 10 μg/mL",0
same,colony growth rates (diameter in mm),"[3]; salt 5 g/L, zeocin 10 μg/mL",0 mm
same,colony numbers,"[3]; salt 5 g/L, zeocin 30 μg/mL",0
same,colony growth rates (diameter in mm),"[3]; salt 5 g/L, zeocin 30 μg/mL",0 mm
same,colony numbers,"[3]; salt 5 g/L, zeocin 50 μg/mL",0
same,colony growth rates (diameter in mm),"[3]; salt 5 g/L, zeocin 50 μg/mL",0 mm
same,colony numbers,"[3]; salt 5 g/L, zeocin 100 μg/mL",0
same,colony growth rates (diameter in mm),"[3]; salt 5 g/L, zeocin 100 μg/mL",0 mm
same,colony numbers,"[3]; salt 8.5 g/L, zeocin 10 μg/mL",0
same,colony growth rates (diameter in mm),"[3]; salt 8.5 g/L, zeocin 10 μg/mL",0 mm
same,colony numbers,"[3]; salt 8.5 g/L, zeocin 30 μg/mL",0
same,colony growth rates (diameter in mm),"[3]; salt 8.5 g/L, zeocin 30 μg/mL",0 mm
same,colony numbers,"[3]; salt 8.5 g/L, zeocin 50 μg/mL",0
same,colony growth rates (diameter in mm),"[3]; salt 8.5 g/L, zeocin 50 μg/mL",0 mm
same,colony numbers,"[3]; salt 8.5 g/L, zeocin 100 μg/mL",0
same,colony growth rates (diameter in mm),"[3]; salt 8.5 g/L, zeocin 100 μg/mL",0 mm
same,colony numbers,"[3]; salt 18 g/L, zeocin 10 μg/mL",11
same,colony growth rates (diameter in mm),"[3]; salt 18 g/L, zeocin 10 μg/mL",4.1 mm
same,colony numbers,"[3]; salt 18 g/L, zeocin 30 μg/mL",0
same,colony growth rates (diameter in mm),"[3]; salt 18 g/L, zeocin 30 μg/mL",0 mm
same,colony numbers,"[3]; salt 18 g/L, zeocin 50 μg/mL",0
same,colony growth rates (diameter in mm),"[3]; salt 18 g/L, zeocin 50 μg/mL",0 mm
same,colony numbers,"[3]; salt 18 g/L, zeocin 100 μg/mL",0
same,colony growth rates (diameter in mm),"[3]; salt 18 g/L, zeocin 100 μg/mL",0 mm
same,colony numbers,"[3]; salt 35 g/L, zeocin 10 μg/mL",22.5
same,colony growth rates (diameter in mm),"[3]; salt 35 g/L, zeocin 10 μg/mL",4.1 mm
same,colony numbers,"[3]; salt 35 g/L, zeocin 30 μg/mL",11
same,colony growth rates (diameter in mm),"[3]; salt 35 g/L, zeocin 30 μg/mL",1.9 mm
same,colony numbers,"[3]; salt 35 g/L, zeocin 50 μg/mL",5
same,colony growth rates (diameter in mm),"[3]; salt 35 g/L, zeocin 50 μg/mL",0.6 mm
same,colony numbers,"[3]; salt 35 g/L, zeocin 100 μg/mL",0
same,colony growth rates (diameter in mm),"[3]; salt 35 g/L, zeocin 100 μg/mL",0 mm
same,zeocin concentration on which the wild type strain grew,[4],≤ 30 µg/mL
same,effect on growth of ONC-T18 (in words),[5],significantly inhibited the growth
same,growth of wild type strains,[6],none of the wild type strains were able to grow
same,stability at high salt concentrations,[7]; Invitrogen,unstable
same,water solubility,[7]; InvivoGen,water soluble
